“And” between values parts separate entries of the source, which are not always exact repeats. Equal values may be shown once. Values belong to the compound of their own block, whether it stands above or below them.
Experiments:
[1] = test system: parkinsonian marmosets (MPTP); assay: Locomotory activity of MPTP-treated parkinsonian marmosets (image analyser, small/medium/large movements); assay type: in vivo, Callithrix jacchus; parameters: Locomotory activity, small movements / Locomotory activity, small movements, Average ± S.E.M. / Locomotory activity, medium movements / Locomotory activity, large movements / Time passed in moving, small movements: unit not given here; conditions: for Time passed in moving, large movements, Average ± S.E.M. / Time passed in moving, small movements, Average ± S.E.M. / Time passed in moving, medium movements, Average ± S.E.M. / Time passed in moving, small movements / Time passed in moving, large movements / Time passed in moving, medium movements: 30 min after 1st daily L-DOPA
Method: On day 32, the animals are divided into 2 groups. […] The locomotory activity is determined by placing the animals in test cages (50 cm×83 cm×77 cm) which are equipped with 3 […] onto which the animals can jump as well as a Plexiglas door in front of which is placed a camera. […] The image is digitalized with a 800×600 definition with 256 levels of grey and the changes in pixels from one image to another are counted. This allows the locomotory activity to be classified into small, medium or large movements. […] The locomotory activity of the animals is measured during the exploration phase, that is to say immediately after they are placed in the test cage.

[2] = test system: parkinsonian marmosets (MPTP); assay: Dyskinesic score in MPTP-treated marmosets under chronic L-DOPA; assay type: in vivo, Callithrix jacchus; parameters: Total dyskinesic score, individual values / Total dyskinesic score, Average ± S.E.M.: scale not given here; conditions: for Total dyskinesic score, Average ± S.E.M. / Total dyskinesic score, individual values: L-DOPA alone (Group 1 controls, sucrose); for Total dyskinesic score, individual values: marmosets 1-3
Method: The marmosets have free access to water and have available each day 35 g of food rich in carbohydrates, proteins and vitamins mixed with water, milk and sugar and also fresh fruit.
All the animals receive 3 injections of 2 mg/kg of MPTP by the subcutaneous route, on days 1, 7 and 32. On day 32, the animals are divided into 2 groups.
The dyskinesic score is determined according to a number of parameters and each with a different degree of intensity: […]

[3] = riluzole 2 × 10 mg/kg + L-DOPA (Group 2), 10 days after L-DOPA
[4] = riluzole 2 × 10 mg/kg + L-DOPA (Group 2), 10 days after L-DOPA, marmosets 4-6, interval 21-30 min, 10 mg/kg, in s (unit assumed)
[5] = riluzole 2 × 10 mg/kg + L-DOPA (Group 2), 10 days after L-DOPA, marmosets 4-6, interval 31-40 min, 10 mg/kg, in s (unit assumed)
[6] = riluzole 2 × 10 mg/kg + L-DOPA (Group 2), 10 days after L-DOPA, marmosets 4-6, interval 51-60 min, 10 mg/kg, in s (unit assumed)
[7] = riluzole 2 × 10 mg/kg + L-DOPA (Group 2), 20 days after L-DOPA, in s (unit assumed)
[8] = riluzole 2 × 10 mg/kg + L-DOPA (Group 2), 20 days after L-DOPA, marmosets 4-6, interval 1-10 min, 10 mg/kg, in s (unit assumed)
[9] = 30 min after the 1st administration of L-DOPA (25 mg/kg p.o.), Group 1, all intervals of 1 h
[10] = 30 min after the 1st administration of L-DOPA (25 mg/kg p.o.), Group 1 marmosets 1-3, interval 11-20 min
[11] = 30 min after the 1st administration of L-DOPA (25 mg/kg p.o.), Group 1 marmosets 1-3, interval 31-40 min
[12] = 30 min after the 1st administration of L-DOPA (25 mg/kg p.o.), Group 1 marmosets 1-3, interval 41-50 min
[13] = 30 min after the 1st administration of L-DOPA (25 mg/kg p.o.), Group 1 marmosets 1-3, interval 51-60 min
[14] = L-DOPA alone (Group 1, sucrose), 10 days after L-DOPA, in s (unit assumed)
[15] = L-DOPA alone (Group 1, sucrose), 20 days after L-DOPA, in s (unit assumed)
[16] = day 57 after 1st MPTP, 30 min after 1st daily L-DOPA
[17] = day 57 after 1st MPTP, 2 h after 1st daily L-DOPA
[18] = day 60 after 1st MPTP, 30 min after 1st daily L-DOPA
[19] = day 60 after 1st MPTP, 2 h after 1st daily L-DOPA
[20] = day 67 after 1st MPTP, 30 min after 1st daily L-DOPA
[21] = day 67 after 1st MPTP, 2 h after 1st daily L-DOPA
[22] = day 104 after 1st MPTP, 30 min after 1st daily L-DOPA
[23] = day 104 after 1st MPTP, 2 h after 1st daily L-DOPA

SMILES: Nc1nc2ccc(OC(F)(F)F)cc2s1 [riluzole, 2-amino-6-trifluoromethoxybenzo-thiazole]
Effect on locomotory activity (in words) ([1]; riluzole 10 mg/kg oral, twice per day for 72 days, after 10 and 20 days of treatment with L-DOPA): capable of improving the locomotory activity
Time passed in moving, large movements, Average ± S.E.M. [1, 3]: 410 ± 25^+++
Time passed in moving, small movements, Average ± S.E.M. [1, 3]: 57 ± 16^+++
Time passed in moving, medium movements, Average ± S.E.M. ([1]; riluzole 2 × 10 mg/kg + L-DOPA (Group 2), 10 days after L-DOPA, in s (unit assumed)): 134 ± 13
Time passed in moving, small movements ([1]; riluzole 2 × 10 mg/kg + L-DOPA (Group 2), 10 days after L-DOPA, marmosets 4-6, interval 1-10 min): 5
Time passed in moving, large movements ([1]; riluzole 2 × 10 mg/kg + L-DOPA (Group 2), 10 days after L-DOPA, marmosets 4-6, interval 1-10 min, 10 mg/kg, in s (unit assumed)): 560 and 495 and 520
Time passed in moving, large movements ([1]; riluzole 2 × 10 mg/kg + L-DOPA (Group 2), 10 days after L-DOPA, marmosets 4-6, interval 11-20 min, 10 mg/kg, in s (unit assumed)): 565 and 455 and 370
Time passed in moving, large movements [1, 4]: 540 and 355 and 435
Time passed in moving, medium movements [1, 4]: 60 and 120 and 115
Time passed in moving, large movements [1, 5]: 460 and 240 and 385
Time passed in moving, medium movements [1, 5]: 140 and 215 and 190
Time passed in moving, medium movements ([1]; riluzole 2 × 10 mg/kg + L-DOPA (Group 2), 10 days after L-DOPA, marmosets 4-6, interval 41-50 min, 10 mg/kg, in s (unit assumed)): 155 and 205 and 175
Time passed in moving, large movements [1, 6]: 430 and 265 and 310
Time passed in moving, medium movements [1, 6]: 135 and 125 and 190
Time passed in moving, medium movements, Average ± S.E.M. ([1]; riluzole 2 × 10 mg/kg + L-DOPA (Group 2), 20 days after L-DOPA): 148 ± 13^+
Time passed in moving, large movements, Average ± S.E.M. [1, 7]: 365 ± 37
Time passed in moving, small movements, Average ± S.E.M. [1, 7]: 67 ± 30
Time passed in moving, large movements [1, 8]: 445 and 335 and 490
Time passed in moving, medium movements [1, 8]: 155 and 140 and 80
Time passed in moving, medium movements ([1]; riluzole 2 × 10 mg/kg + L-DOPA (Group 2), 20 days after L-DOPA, marmosets 4-6, interval 51-60 min, 10 mg/kg, in s (unit assumed)): 90 and 180 and 105

Total dyskinesic score, Average ± S.E.M. [2, 16]: 6.7 ± 2.1
Total dyskinesic score, individual values [2, 16]: 4 and 11 and 5
Total dyskinesic score, Average ± S.E.M. [2, 17]: 6.0 ± 2.1
Total dyskinesic score, individual values [2, 17]: 3 and 10 and 5
Total dyskinesic score, Average ± S.E.M. [2, 18]: 9.0 ± 2.5
Total dyskinesic score, individual values [2, 18]: 4 and 11 and 12
Total dyskinesic score, Average ± S.E.M. [2, 19]: 8.3 ± 2.32
Total dyskinesic score, individual values [2, 19]: 4 and 9 and 12
Total dyskinesic score, Average ± S.E.M. [2, 20]: 10 ± 3.0
Total dyskinesic score, individual values [2, 20]: 4 and 14 and 12
Total dyskinesic score, Average ± S.E.M. [2, 21]: 10 ± 3.0
Total dyskinesic score, individual values [2, 21]: 4 and 13 (2×)
Total dyskinesic score, Average ± S.E.M. [2, 22]: 11 ± 3.8
Total dyskinesic score, individual values [2, 22]: 4 and 17 and 2
Total dyskinesic score, Average ± S.E.M. [2, 23]: 11 ± 3.0
Total dyskinesic score, individual values [2, 23]: 5 and 17 and 12
Dyskinesias (in words) ([2]; repeated L-DOPA 25 mg/kg oral, 3 times per day, days 57, 60, 67 and 104, maximum effect on day 104): produce dyskinesias
SMILES: N[C@@H](Cc1ccc(O)c(O)c1)C(=O)O [L-DOPA, 3-(3,4-dihydroxyphenyl)-L-alanine]
Locomotory activity, large movements, Average ± S.E.M. [1, 9]: 334 + 23
Locomotory activity, medium movements, Average ± S.E.M. [1, 9]: 226 ± 13
Locomotory activity, small movements, Average ± S.E.M. [1, 9]: 40 ± 16
Locomotory activity, medium movements ([1]; 30 min after the 1st administration of L-DOPA (25 mg/kg p.o.), Group 1 marmosets 1-3, interval 1-10 min): 250 and 235 and 270
Locomotory activity, large movements [1, 10]: 350 and 385 and 275
Locomotory activity, medium movements [1, 10]: 240 and 190 and 290
Locomotory activity, large movements ([1]; 30 min after the 1st administration of L-DOPA (25 mg/kg p.o.), Group 1 marmosets 1-3, interval 21-30 min): 490 and 370 and 375
Locomotory activity, large movements [1, 11]: 290 and 230 and 335
Locomotory activity, medium movements [1, 11]: 255 and 355 and 205
Locomotory activity, large movements [1, 12]: 425 and 295 and 420
Locomotory activity, medium movements [1, 12]: 165 and 260
Locomotory activity, large movements [1, 13]: 350 and 330 and 365
Locomotory activity, medium movements [1, 13]: 215 and 240 and 200
Locomotory activity, small movements [1, 13]: 35 and 30
Effect on locomotory activity (in words) ([1]; L-DOPA after repeated treatment of 10 days and of 20 days): does not have or has little beneficial effect on the locomotory activity
Time passed in moving, large movements, Average ± S.E.M. [1, 14]: 171 ± 48
Time passed in moving, medium movements, Average ± S.E.M. [1, 14]: 160 ± 23
Time passed in moving, small movements, Average ± S.E.M. [1, 14]: 269 ± 47
Time passed in moving, small movements ([1]; L-DOPA alone (Group 1, sucrose), 10 days after L-DOPA, marmosets 1-3, interval 51-60 min): 205 and 225 and 240
Time passed in moving, medium movements ([1]; L-DOPA alone (Group 1, sucrose), 10 days after L-DOPA, marmosets 1-3, interval 51-60 min, in s (unit assumed)): 165 and 305 and 235
Time passed in moving, large movements, Average ± S.E.M. [1, 15]: 283 ± 50
Time passed in moving, medium movements, Average ± S.E.M. [1, 15]: 235 ± 37
Time passed in moving, small movements, Average ± S.E.M. [1, 15]: 83 ± 19
Effect on locomotory activity (in words) ([1]; acute administration of L-DOPA 25 mg/kg, 15 days after the 3rd injection of MPTP): increases the locomotory activity by decreasing the small movements and increasing the large movements

From patent publication US6387936B1 (Aventis Pharma S.A., priority 1998, dated 2002)
